In US20180243273A1, “Composition for Intravesical Administration for Treating Bladder Pain” (priority 2017, published 2018):

Test: Preliminary stability study of API intravesical solution
Type: physicochemical
Procedure: Two dose strengths were specified: 40 μg/mL and 150 μg/mL API. These concentrations were defined in order to stay below 80% of the saturated solubility values obtained during previous experiments. To enable dissolution of the API, 0.5 wt.-% and 2 wt.-% vitamin E TPGS were used for 40 μg/mL and 150 μg/mL API, respectively (24 h stirring). The compositions were treated with nitrogen and stored at 5° C., 25° C. and 40° C.

[1] = vitamin E TPGS 0.5%, API 40 μg/mL, no Asc., treated with nitrogen, 6° C., 1 m
[2] = vitamin E TPGS 0.5%, API 40 μg/mL, no Asc., treated with nitrogen, 6° C., 2 w
[3] = vitamin E TPGS 0.5%, API 40 μg/mL, no Asc., treated with nitrogen, 6° C., 3 m
[4] = vitamin E TPGS 0.5%, API 40 μg/mL, no Asc., treated with nitrogen, 25° C., 1 m
[5] = vitamin E TPGS 0.5%, API 40 μg/mL, no Asc., treated with nitrogen, 25° C., 2 w
[6] = vitamin E TPGS 0.5%, API 40 μg/mL, no Asc., treated with nitrogen, 25° C., 3 m
[7] = vitamin E TPGS 0.5%, API 40 μg/mL, no Asc., treated with nitrogen, 40° C., 1 m
[8] = vitamin E TPGS 0.5%, API 40 μg/mL, no Asc., treated with nitrogen, 40° C., 2 w
[9] = vitamin E TPGS 0.5%, API 40 μg/mL, no Asc., treated with nitrogen, 40° C., 3 m
[10] = vitamin E TPGS 0.5%, API 40 μg/mL, no Asc., treated with nitrogen, t = 0
[11] = vitamin E TPGS 2%, API 150 μg/mL, Asc. 1%, 6° C., 1 m
[12] = vitamin E TPGS 2%, API 150 μg/mL, Asc. 1%, 6° C., 2 w
[13] = vitamin E TPGS 2%, API 150 μg/mL, Asc. 1%, t = 0
[14] = vitamin E TPGS 2%, API 150 μg/mL, no Asc., treated with nitrogen, 6° C., 1 m
[15] = vitamin E TPGS 2%, API 150 μg/mL, no Asc., treated with nitrogen, 6° C., 2 w
[16] = vitamin E TPGS 2%, API 150 μg/mL, no Asc., treated with nitrogen, 6° C., 3 m
[17] = vitamin E TPGS 2%, API 150 μg/mL, no Asc., treated with nitrogen, 25° C., 1 m
[18] = vitamin E TPGS 2%, API 150 μg/mL, no Asc., treated with nitrogen, 25° C., 2 w
[19] = vitamin E TPGS 2%, API 150 μg/mL, no Asc., treated with nitrogen, 25° C., 3 m
[20] = vitamin E TPGS 2%, API 150 μg/mL, no Asc., treated with nitrogen, 40° C., 1 m
[21] = vitamin E TPGS 2%, API 150 μg/mL, no Asc., treated with nitrogen, 40° C., 2 w
[22] = vitamin E TPGS 2%, API 150 μg/mL, no Asc., treated with nitrogen, 40° C., 3 m
[23] = vitamin E TPGS 2%, API 150 μg/mL, no Asc., treated with nitrogen, t = 0

Structure (SMILES): CN(C)[C@]1(c2cccc(F)c2)CC[C@]2(CC1)c1[nH]c3ccccc3c1CCN2C(=O)/C=C/c1ccccc1 [API, cis-(E)-4-(3-fluorophenyl)-2′,3′,4′,9′-tetrahydro-N,N-dimethyl-2′-(1-oxo-3-phenyl-2-propenyl)-spiro[cyclohexane-1,1′[1H]-pyrido[3,4-b]indol]-4-amine]
- Impurities (vitamin E TPGS 0.5%, API 40 μg/mL, Asc. 1%, t = 0): 0.57 % (a/a)
- Assay [1]: 54.62 % L.S.
- Impurities [1]: 0.58 % (a/a)
- Assay [2]: 54.81 % L.S.
- Impurities [2]: 0.08 % (a/a)
- Assay [3]: 55.05 % L.S.
- Impurities [3]: 0.69 % (a/a)
- Assay [4]: 54.98 % L.S.
- Impurities [4]: 0.86 % (a/a)
- Assay [5]: 54.71 % L.S.
- Impurities [5]: 0.97 % (a/a)
- Assay [6]: 54.50 % L.S.
- Impurities [6]: 1.42 % (a/a)
- Assay [7]: 54.06 % L.S.
- Impurities [7]: 1.78 % (a/a)
- Assay [8]: 54.61 % L.S.
- Impurities [8]: 1.04 % (a/a)
- Assay [9]: 52.07 % L.S.
- Impurities [9]: 4.94 % (a/a)
- Assay [10]: 54.58 % L.S.
- Impurities [10]: 0.55 % (a/a)
- Assay [11]: 67.68 % L.S.
- Impurities [11]: 1.16 % (a/a)
- Assay [12]: 68.11 % L.S.
- Impurities [12]: 0.68 % (a/a)
- Assay [13]: 68.21 % L.S.
- Impurities [13]: 0.68 % (a/a)
- Assay [14]: 61.93 % L.S.
- Impurities [14]: 0.72 % (a/a)
- Assay [15]: 62.29 % L.S.
- Impurities [15]: 0.49 % (a/a)
- Assay [16]: 62.05 % L.S.
- Impurities [16]: 0.72 % (a/a)
- Assay [17]: 62.07 % L.S.
- Impurities [17]: 1.00 % (a/a)
- Assay [18]: 61.97 % L.S.
- Impurities [18]: 0.68 % (a/a)
- Assay [19]: 61.96 % L.S.
- Impurities [19]: 1.37 % (a/a)
- Assay [20]: 61.37 % L.S.
- Impurities [20]: 1.84 % (a/a)
- Assay [21]: 61.71 % L.S.
- Impurities [21]: 1.16 % (a/a)
- Assay [22]: 59.41 % L.S.
- Impurities [22]: 4.09 % (a/a)
- Assay [23]: 61.73 % L.S.
- Impurities [23]: 0.44 % (a/a)
